Assay results from publication PMC6273799, “The Interference of Selected Cytotoxic Alkaloids with the Cytoskeleton: An Insight into Their Modes of Action” (Molecules, 2016).
Like-named read-outs stand apart in the source and are kept apart here.

Assays:
[1] = tested on: Hela cells; assay: MTT cytotoxicity assay, Hela; format: cell-based, human; conditions: 48 h, mean ± SD
Description: (§1) The anti-proliferative effects of alkaloids were assessed using the MTT assay, as previously described. In brief, 1 × 10^4 cells were seeded in 96-well-plates and incubated with serial dilutions of alkaloids for 48 h (Hela, U2OS) and 72 h (MCF-7). MTT solution was then added and incubated for 2 h. After the addition of DMSO, the plate was read at 570 nm using the Tecan infinite M200 Pro (Tecan, Crailsheim, Germany).
(§2) All experiments were performed at least three times. Data are presented as the mean ± standard deviation. Statistical comparison between controls and different treatments were performed by an unpaired Student’s t-test. Significance was considered at p < 0.05.

[2] = tested on: Hela cells; assay: Cell cycle analysis by flow cytometry (propidium iodide); format: cell-based, human
Description: Cell cycle analysis was carried out as established in our laboratory. Hela cells (5 × 10^5) were seeded in 6-well plates and treated with different concentrations of alkaloids for 24 h. Cells were then collected, centrifuged and fixed in 70% ice-cold ethanol for at least 8 h. After the washing steps, cells were treated with 0.2 mg/mL RNase A for 30 min at 37 °C and then stained with 0.1 mg/mL propidium iodide. Samples were analyzed using a FACScan flow cytometer (Becton Dickinson, Heidelberg, Germany). Data were analyzed using Cell Quest™ Pro software (Becton Dickinson) and Microsoft Excel 2013 (Microsoft Corporation, Redmond, WA, USA).

[3] = tested on: microtubules in Hela cells; assay: Immunofluorescence staining of microtubules and spindles in Hela cells; format: cell-based, human; conditions: for effect on mitotic spindles: Hela metaphase cells, IC50, 24 h; for effect on interphase cellular microtubules: Hela, immunofluorescence, IC80
Description: (§3) Then, cells were fixed in 4% paraformaldehyde at 4 °C for 20 min and permeabilized by 0.3% (v/v) Triton X-100 for 10 min. Nonspecific binding sites on the coverslips were blocked by incubating them with 5% FBS for 1 h. To stain the microtubules, cells were firstly incubated with 1:100 mouse anti-α-tubulin monoclonal IgG for 1 h and then with 1:200 goat anti-mouse […] for 1 h. Cells were then incubated with […] Atto 390 phalloidin for 45 min to stain the actin filaments and 20 μg/mL propidium iodide for 30 min to stain the cell nucleus/chromosomes. After washing steps, the coverslips were mounted by mowiol. Microtubules, actin filaments and cell nucleus/chromosomes were observed and analyzed using the Keyence BZ-9000 microscope as described before.

[4] = biological target: T1, tubulin plus microtubule-associated proteins (MAPs) from porcine brains (Sus scrofa, UniProt P02550+P02554); assay: In vitro tubulin polymerization assay (light scattering at 360 nm); format: biochemical; conditions: for IC50: 5.6 mg/mL tubulin-MAPs, 37 °C, 40 min, read-out: IC50 inhibition of tubulin polymerization in vitro; for effect on tubulin polymerization in vitro: tubulin-MAPs
T1 construct: prepared from porcine brains (freshly obtained from a local slaughter house) by two cycles of polymerization and depolymerization; from tissue; host or cells: porcine brain
T1 sequence (P02550 whole entry): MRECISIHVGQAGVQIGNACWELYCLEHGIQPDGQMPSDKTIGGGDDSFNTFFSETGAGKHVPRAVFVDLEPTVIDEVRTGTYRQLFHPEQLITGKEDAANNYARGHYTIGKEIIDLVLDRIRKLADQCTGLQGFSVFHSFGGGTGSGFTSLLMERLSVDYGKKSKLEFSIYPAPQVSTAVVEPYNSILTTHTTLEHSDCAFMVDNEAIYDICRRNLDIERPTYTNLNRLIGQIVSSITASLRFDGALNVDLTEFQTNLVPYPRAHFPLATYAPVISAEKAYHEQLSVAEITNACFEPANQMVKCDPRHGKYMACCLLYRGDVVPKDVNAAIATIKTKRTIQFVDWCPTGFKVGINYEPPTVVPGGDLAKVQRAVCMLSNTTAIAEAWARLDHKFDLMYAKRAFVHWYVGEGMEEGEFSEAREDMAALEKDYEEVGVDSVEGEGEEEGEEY
T1 sequence (P02554 whole entry): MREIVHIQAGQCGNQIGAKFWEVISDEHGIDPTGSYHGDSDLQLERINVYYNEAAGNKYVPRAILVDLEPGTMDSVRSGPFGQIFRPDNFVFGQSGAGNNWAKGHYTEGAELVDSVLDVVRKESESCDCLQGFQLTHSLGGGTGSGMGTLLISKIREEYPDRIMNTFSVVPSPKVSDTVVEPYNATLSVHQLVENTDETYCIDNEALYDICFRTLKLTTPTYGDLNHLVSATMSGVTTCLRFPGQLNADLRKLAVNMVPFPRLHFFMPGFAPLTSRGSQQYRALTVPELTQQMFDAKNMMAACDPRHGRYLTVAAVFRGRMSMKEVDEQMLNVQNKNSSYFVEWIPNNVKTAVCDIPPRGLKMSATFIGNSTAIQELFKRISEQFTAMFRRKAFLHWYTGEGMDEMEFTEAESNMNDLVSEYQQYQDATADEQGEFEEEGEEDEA
Description: Tubulin plus microtubule-associated proteins (MAPs) were prepared from porcine brains (freshly obtained from a local slaughter house) by two cycles of polymerization and depolymerization according to a standard protocol. […] The rate and extent of the polymerization reaction were monitored by light scattering at 360 nm using Tecan infinite M200 Pro.
as §2

[5] = tested on: U2OS cells; assay: MTT cytotoxicity assay, U2OS; format: cell-based, human; conditions: 48 h, mean ± SD
Description: as §1, §2

[6] = tested on: MCF-7 cells; assay: MTT cytotoxicity assay, MCF-7; format: cell-based, human; conditions: mean ± SD
Description: as §1, §2

[7] = tested on: Hela, MCF-7 and U2OS cells; assay: MTT cytotoxicity, summary over three cell lines; format: cell-based; conditions: Homo sapiens, MCF-7, U2OS
Description: as §1, §2

[8] = tested on: actin filaments in Hela cells; assay: Imaging of actin filaments in Hela cells (actin-RFP, immunofluorescence); format: cell-based, human; conditions: high concentration (IC80)
Description: as §3
Hela cells (2 × 10^4) were seeded in 24-well plates and mixed with CellLight® Actin-RFP BacMam 2.0, which is a fusion construct of human actin and TagRFP, providing an accurate and specific targeting to cellular actin filaments. After 16 h of incubation, 200 μL of different concentrations of alkaloids (IC80, IC50) were added into each well, and the cells were analyzed as described above (Section 4.4).

[9] = tested on: microtubules in U2OS cells; assay: Imaging of microtubule network in α-tubulin-GFP U2OS cells; format: cell-based, human
Description: α-Tubulin-GFP U2OS cells (1 × 10^5) were seeded in 24-well plates and grown for 24 h. […] The images were analyzed using BZ-II Analyzer software (version 2.1, Keyence, Neu-Isenburg, Germany).

[10] = read-out: IC50 values, range over three cell lines
[11] = U2OS α-tubulin-GFP, IC80 and IC50, 2-48 h
[12] = read-out: IC50 values, range over all three cell lines

Compound | IC50 ([1]; Homo sapiens, HeLa) [nM] | effect on cell cycle ([2]; 24 h) | effect on mitotic spindles [3] | IC50 ([4]; mean ± SD) [µM] | IC50 ([5]; Homo sapiens, U2OS) [µM] | IC50 ([6]; Homo sapiens, MCF7, 72 h) [µM] | IC50 [7, 10] [nM] | effect on actin filaments [8] | effect on microtubule network [9, 11] | IC50 [4] [µM] | also measured
COc1ccc2c(c[n+](C)c3c4cc5c(cc4ccc23)OCO5)c1OC [Chelerythrine, chelerythrine] | 3850 ± 2100 | did not change the proportion of mitotic cells | abnormal, but still bipolar spindles | 206 ± 4.2 | 2.88 ± 0.76 | 7.63 ± 3.43 | 920 to 7630 | significant reduction of actin filament mass | displayed similar effects as sanguinarine | – | effect on interphase cellular microtubules [3]: significantly reduced the mass of microtubules
CN1Cc2c(ccc3c2OCO3)[C@@H]2[C@H]1c1cc3c(cc1C[C@@H]2O)OCO3 [Chelidonine, chelidonine] | 1130 ± 370 | – | multipolar spindles with chromosome congression failure | 34.5 ± 9.47 | 3.86 ± 1.99 | 3.85 ± 0.1 | 920 to 7630 | significant reduction of actin filament mass | – | – | G2/M population ([2]; 2.5 μM, 24 h): 88.27% ± 0.99%; effect on microtubule network [9]: significantly decreased cellular microtubule mass
COc1cc2c(c(OC)c1OC)-c1ccc(OC)c(=O)cc1[C@@H](NC(C)=O)CC2 [Colchicine, colchicine] | – | – | completely depolymerized spindle | – | – | – | – | No apparent changes of actin filaments | reduced the mass of the microtubule network | – | G2/M population ([2]; 0.1 μM, 24 h): 89.66% ± 2.04%
COC(=O)C[C@](O)(CCCC(C)(C)O)C(=O)O[C@@H]1C(OC)=C[C@]23CCCN2CCc2cc4c(cc2[C@H]13)OCO4 [Homoharringtonine, homoharringtonine] | 9.03 ± 0.38 | had no impact on the cell cycle | did not affect mitotic spindles | – | 0.003 ± 0.00167 | 0.00087 ± 0.00045 | – | No apparent changes of actin filaments | No obvious changes on the cellular microtubule network | > 1000 | effect on tubulin polymerization in vitro [4]: did not affect tubulin polymerization; IC50 [7, 12]: 0.87 to 9.03 nM
C/C1=C/C(=O)O[C@@H]2C[C@@H](CC[C@H](C)/C=C\CC1)O[C@@](O)([C@@H]1CSC(=O)N1)C2 [Latrunculin B, latrunculin B] | – | – | – | – | – | – | – | extensive depolymerization of the actin network | immediately changed the cell morphology | – | IC50 [1]: 7130 ± 610 nM; G2/M population ([2]; 7 μM, 24 h): 80.05% ± 11.89%; IC50 [5]: 5.48 ± 0.68 µM; IC50 ([6]; 72 h): 36.8 ± 2.25 µM
COc1ccc2c(c1OC)C(=O)O[C@@H]2[C@H]1c2c(cc3c(c2OC)OCO3)CCN1C [Noscapine, noscapine] | 16800 ± 9790 | – | multipolar spindles with chromosome congression failure | – | 60.9 ± 12.2 | 35.2 ± 8.18 | – | No apparent changes of actin filaments | remarkably depolymerized the microtubule network and reduced its mass | > 1000 | G2/M population ([2]; 80 μM, 24 h): 73.42% ± 8.31%
CC(=O)O[C@H]1C(=O)[C@@]2(C)[C@H]([C@H](OC(=O)c3ccccc3)[C@]3(O)C[C@H](OC(=O)[C@H](O)[C@@H](NC(=O)c4ccccc4)c4ccccc4)C(C)=C1C3(C)C)[C@]1(OC(C)=O)CO[C@@H]1C[C@@H]2O [Paclitaxel, paclitaxel] | 0.08 ± 0.1 | – | aberrant, but still bipolar spindles | 38.2 ± 3.33 | 0.23 ± 0.1 | 1.05 ± 0.43 | – | No apparent changes of actin filaments | promoted the polymerization of microtubules | – | G2/M population ([2]; 0.1 μM, 24 h): 80.37% ± 5.36%
CN1CCc2cc3c(cc2C(=O)Cc2ccc4c(c2C1)OCO4)OCO3 [Protopine, protopine] | 27500 ± 11800 | – | thickened spindle arrays | – | 62.4 ± 9.9 | 67.3 ± 9.06 | – | No apparent changes of actin filaments | notably enhanced the assembly of the microtubule network | > 1000 | G2/M population ([2]; 250 μM, 24 h): 54.35% ± 11.26%; G2/M population ([2]; 250.9 μM): 54.35% ± 11.26%; effect on tubulin polymerization in vitro [4]: did not affect tubulin polymerization
C[n+]1cc2c3c(ccc2c2ccc4cc5c(cc4c21)OCO5)OCO3 [Sanguinarine, sanguinarine] | 1030 ± 40 | did not change the proportion of mitotic cells | had no impact on mitotic spindles | 48.4 ± 3.73 | 0.92 ± 0.53 | 1.24 ± 0.21 | 920 to 7630 | significant reduction of actin filament mass | – | – | effect on interphase cellular microtubules [3]: significantly reduced the mass of microtubules; effect on microtubule network [9]: disrupted microtubule distribution and altered their morphology
CC[C@]1(O)C[C@@H]2CN(CCc3c([nH]c4ccccc34)[C@@](C(=O)OC)(c3cc4c(cc3OC)N(C)[C@H]3[C@@](O)(C(=O)OC)[C@H](OC(C)=O)[C@]5(CC)C=CCN6CC[C@]43[C@@H]65)C2)C1 [Vinblastine, vinblastine] | 0.02 ± 0.01 | – | depolymerized bipolar spindles | 1.42 ± 0.05 | 0.0001 ± 5e-05 | 7e-05 ± 5e-05 | – | No apparent changes of actin filaments | microtubules were extensively depolymerized and tubulin paracrystals were formed | – | G2/M population ([2]; 10 nM, 24 h): 78.04% ± 14.78%; IC50 [7, 12]: 0.02 to 0.1 nM
